{
  "source": "patent EP0483928A1",
  "about": "“2-Saccharinylmethyl aryl carboxylates useful as proteolytic enzyme inhibitors and compositions and method of use” (STERLING WINTHROP INC., priority 1990, dated 1992)",
  "note": "Counter-ions that a name gives are not always drawn.",
  "data": [
    {"molecular_target": "T1, human leukocyte elastase (HLE) (Homo sapiens, UniProt P08246)", "T1 sequence (P08246 30-267)": "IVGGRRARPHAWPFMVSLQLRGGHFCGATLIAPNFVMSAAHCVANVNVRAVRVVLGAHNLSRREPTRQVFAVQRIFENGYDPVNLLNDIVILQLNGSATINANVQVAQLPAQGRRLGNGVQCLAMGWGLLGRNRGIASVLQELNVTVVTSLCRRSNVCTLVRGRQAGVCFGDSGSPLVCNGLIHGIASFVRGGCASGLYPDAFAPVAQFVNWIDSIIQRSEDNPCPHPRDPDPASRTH", "experiment": "Inhibition of human leukocyte elastase: rate of inactivation kon and inhibition constant Ki* (koff/kon)", "format": "biochemical", "settings": "not given", "units": {"Ki": "nM"}, "values": [
      {"smiles": "CCOP(=O)(OCC)c1cccc(C(=O)OCN2C(=O)c3c(C(C)C)cc(OC)cc3S2(=O)=O)c1", "note": "[Example 1BE]", "Ki": 0.064}
    ]},
    {"molecular_target": "T1, human leukocyte elastase (HLE)", "experiment": "Inhibition of human leukocyte elastase: rate of inactivation kon and inhibition constant Ki* (koff/kon)", "format": "biochemical", "settings": "Ki* = koff/kon, calculated from measured koff and kon; not a truly reversible Ki; read-out: K*i", "units": {"Ki": "nM"}, "values": [
      {"smiles": "COc1cc(C(C)C)c2c(c1)S(=O)(=O)N(COC(=O)c1c(Cl)ccc(OCCN3CCCCC3)c1Cl)C2=O", "note": "[Example 1AU]", "Ki": 0.03},
      {"smiles": "COc1ccc(C(=O)OCN2C(=O)c3ccccc3S2(=O)=O)c(OC)c1", "note": "[Example 1E]", "Ki": 18},
      {"smiles": "Cc1cccc(C)c1C(=O)OCN1C(=O)c2c(C(C)C)cccc2S1(=O)=O", "note": "[Example 1K]", "Ki": 0.09},
      {"smiles": "COc1cc(C(C)C)c2c(c1)S(=O)(=O)N(COC(=O)c1c(OC)ccc([N+](=O)[O-])c1OC)C2=O", "note": "[Example 1BN]", "Ki": 0.025},
      {"smiles": "CCOc1cc(C(C)C)c2c(c1)S(=O)(=O)N(COC(=O)c1c(Cl)cccc1Cl)C2=O", "note": "[Example 5A, 6-ethoxy-4-isopropyl-2-saccharinylmethyl 2,6-dichlorobenzoate]", "Ki": 0.05},
      {"smiles": "CC(C)c1cc2c(c3c1C(=O)N(COC(=O)c1c(Cl)cccc1Cl)S3(=O)=O)OCO2", "note": "[Example 1BG]", "Ki": 0.043},
      {"smiles": "CC(C)c1cccc2c1C(=O)N(COC(=O)c1cc(Cl)ccc1Cl)S2(=O)=O", "note": "[Example 1M]", "Ki": 0.25},
      {"smiles": "COc1cc(C(C)C)c2c(c1)S(=O)(=O)N(COC(=O)c1c(OC)cc(OCc3ccccc3)cc1OC)C2=O", "note": "[Example 1BP]", "Ki": 0.35},
      {"smiles": "CC(C)c1cccc2c1C(=O)N(COC(=O)c1c(Cl)ccc(S(=O)(=O)NCC(=O)O)c1Cl)S2(=O)=O", "note": "[Example 1W]", "Ki": 0.01},
      {"smiles": "CC(C)c1cccc2c1C(=O)N(COC(=O)c1c(Cl)ccc(OCc3ccccc3)c1Cl)S2(=O)=O", "note": "[Example 1Y]", "Ki": 0.12},
      {"smiles": "COc1cc(C(C)C)c2c(c1)S(=O)(=O)N(COC(=O)c1c(F)cccc1F)C2=O", "note": "[Example 1BL]", "Ki": 0.043},
      {"smiles": "CC(C)c1cc(OC2CCC2)cc2c1C(=O)N(COC(=O)c1c(Cl)cccc1Cl)S2(=O)=O", "note": "[Example 5G]", "Ki": 0.054},
      {"smiles": "COc1cc(C(C)C)c2c(c1)S(=O)(=O)N(COC(=O)c1c(Cl)ccc(S(=O)(=O)NCC(=O)O)c1Cl)C2=O", "note": "[Example 2D, 4-isopropyl-6-methoxy-2-saccharinylmethyl 2,6-dichloro-3-carboxymethylamino-sulfonylbenzoate]", "Ki": 0.008},
      {"smiles": "COCCOCCOc1cc(C(C)C)c2c(c1)S(=O)(=O)N(COC(=O)c1c(Cl)cccc1Cl)C2=O", "note": "[Example 5D]", "Ki": 0.03},
      {"smiles": "COc1cc(C(C)C)c2c(c1)S(=O)(=O)N(COC(=O)c1ccccc1C(C)C)C2=O", "note": "[Example 1BS]", "Ki": 0.036},
      {"smiles": "COc1cc(C(C)C)c2c(c1)S(=O)(=O)N(COC(=O)c1c(Cl)ccc(OCCN(C)C)c1Cl)C2=O", "note": "[Example 1AS]", "Ki": 0.013},
      {"smiles": "COc1cc(Cl)c(C(=O)OCN2C(=O)c3c(C(C)C)cccc3S2(=O)=O)c(Cl)c1", "note": "[Example 1AC]", "Ki": 0.025},
      {"smiles": "COc1cc(F)c(C(=O)OCN2C(=O)c3c(C(C)C)cc(OC)cc3S2(=O)=O)c(F)c1", "note": "[Example 1BQ]", "Ki": 0.068},
      {"smiles": "CC(C)c1cccc2c1C(=O)N(COC(=O)c1ccc(Cl)cc1Cl)S2(=O)=O", "note": "[Example 1AO]", "Ki": 1},
      {"smiles": "COc1cc(C(C)C)c2c(c1)S(=O)(=O)N(COC(=O)c1c(OC)ccc(NC(C)=O)c1OC)C2=O", "note": "[Example 1BR]", "Ki": 0.057},
      {"smiles": "COC(=O)COc1cc(C(C)C)c2c(c1)S(=O)(=O)N(COC(=O)c1c(Cl)cccc1Cl)C2=O", "note": "[Example 5E]", "Ki": 0.017},
      {"smiles": "CC(C)c1cccc2c1C(=O)N(COC(=O)c1cccc(OCc3ccccc3)c1)S2(=O)=O", "note": "[Example 1X]", "Ki": 0.5},
      {"smiles": "CC(C)c1cc(O)cc2c1C(=O)N(COC(=O)c1c(Cl)cccc1Cl)S2(=O)=O", "note": "[Example 1C, 4-isopropyl-6-hydroxysaccharinylmethyl 2,6-dichlorobenzoate]", "Ki": 0.4},
      {"smiles": "CC(C)c1cccc2c1C(=O)N(COC(=O)c1c(Cl)ccc(O)c1Cl)S2(=O)=O", "note": "[Example 2A, 4-isopropyl-2-saccharinylmethyl 2,6-dichloro-3-hydroxybenzoate]", "Ki": 0.04},
      {"smiles": "CCCc1c(OC)c(OC)cc2c1C(=O)N(COC(=O)c1c(Cl)ccc(OCCN3CCOCC3)c1Cl)S2(=O)=O", "note": "[Example 1BD]", "Ki": 0.07},
      {"smiles": "CC(C)c1cc(OCC(=O)OCc2ccccc2)cc2c1C(=O)N(COC(=O)c1c(Cl)cccc1Cl)S2(=O)=O", "note": "[Example 7B, 6-(2-benzyloxy-2-oxoethoxy)-4-isopropyl-2-saccharinylmethyl 2,6-dichlorobenzoate]", "Ki": 0.056},
      {"smiles": "CC(C)c1cccc2c1C(=O)N(COC(=O)c1c(Cl)ccc(S(=O)(=O)N3CCOCC3)c1Cl)S2(=O)=O", "note": "[Example 1U]", "Ki": 0.01},
      {"smiles": "CC(C)c1cccc2c1C(=O)N(COC(=O)c1c(Cl)cc(OCCN3CCOCC3)cc1Cl)S2(=O)=O", "note": "[Example 1BY]", "Ki": 0.025},
      {"smiles": "O=C(O)CNS(=O)(=O)c1ccc(Cl)c(C(=O)OCN2C(=O)c3ccccc3S2(=O)=O)c1Cl", "note": "[Example 1T]", "Ki": 4},
      {"smiles": "CC(C)c1cccc2c1C(=O)N(COC(=O)c1c(Cl)ccc(S(=O)(=O)N3CCNCC3)c1Cl)S2(=O)=O", "note": "[Example 2B, 4-isopropyl-2-saccharinylmethyl 2,6-dichloro-3-(1-piperazinylsulfonyl)benzoate hydrochloride]", "Ki": 0.02},
      {"smiles": "CC(C)c1cc(-c2cccn2C)cc2c1C(=O)N(COC(=O)c1c(Cl)cccc1Cl)S2(=O)=O", "note": "[Example 5J, 4-isopropyl-6-[2-[1-methyl]pyrrolidinyl]saccharinylmethyl 2,6-dichlorobenzoate]", "Ki": 0.2},
      {"smiles": "CC(C)c1cc2c(c3c1C(=O)N(COC(=O)c1c(Cl)ccc(OCCN4CCOCC4)c1Cl)S3(=O)=O)OCO2", "note": "[Example 1BJ]", "Ki": 0.029},
      {"smiles": "CC(C)c1cccc2c1C(=O)N(COC(=O)c1c3ccccc3cc3ccccc13)S2(=O)=O", "note": "[Example 1L]", "Ki": 0.3},
      {"smiles": "CCN(CC)CCOc1ccc(Cl)c(C(=O)OCN2C(=O)c3c(C(C)C)cc(OC)cc3S2(=O)=O)c1Cl", "note": "[Example 1AV]", "Ki": 0.023},
      {"smiles": "CC(C)c1cc(OCC2COC(C)(C)O2)cc2c1C(=O)N(COC(=O)c1c(Cl)cccc1Cl)S2(=O)=O", "note": "(stereo not drawn) [Example 5C]", "Ki": 0.03},
      {"smiles": "CCc1c(OC)cc(OC)c2c1C(=O)N(COC(=O)c1c(Cl)cccc1Cl)S2(=O)=O", "note": "[Example 1AY]", "Ki": 0.9},
      {"smiles": "CC(C)c1cccc2c1C(=O)N(COC(=O)c1c(Cl)ccc(OCC(=O)O)c1Cl)S2(=O)=O", "note": "[Example 3, 4-isopropyl-2-saccharinylmethyl 2,6-dichloro-3-carboxymethoxybenzoate]", "Ki": 0.01},
      {"smiles": "COc1ccc(Cl)c(C(=O)OCN2C(=O)c3c(C(C)C)cccc3S2(=O)=O)c1Cl", "note": "[Example 1AB]", "Ki": 0.016},
      {"smiles": "CC(C)Oc1cc(C(C)C)c2c(c1)S(=O)(=O)N(COC(=O)c1c(Cl)cccc1Cl)C2=O", "note": "[Example 5B]", "Ki": 0.057},
      {"smiles": "COc1cc(OC)c(C(=O)OCN2C(=O)c3c(C(C)C)cc(OC)cc3S2(=O)=O)c(OC)c1", "note": "[Example 1BO]", "Ki": 0.05},
      {"smiles": "COCC(COc1cc(C(C)C)c2c(c1)S(=O)(=O)N(COC(=O)c1c(Cl)cccc1Cl)C2=O)OC", "note": "(racemic) [Example 5F]", "Ki": 0.027},
      {"smiles": "CC(C)c1cccc2c1C(=O)N(COC(=O)c1c(Cl)ccc(S(=O)(=O)N3CCN(C)CC3)c1Cl)S2(=O)=O", "note": "[Example 1V]", "Ki": 0.007},
      {"smiles": "COc1cc(C(C)C)c2c(c1)S(=O)(=O)N(COC(=O)c1c(C)cc(OCc3ccccc3)cc1C)C2=O", "note": "[Example 1BZ]", "Ki": 0.3},
      {"smiles": "O=C(OCN1C(=O)C2=C(C3CCC2C3)S1(=O)=O)c1c(Cl)cccc1Cl", "note": "(stereo not drawn) [Example 8, 2-(2,6-dichlorobenzoyloxymethyl)4,5,6,7-tetrahydro-4,7-methano-1,2-benzisothiazol-3(2H)-one 1,1-dioxide]", "Ki": 0.6},
      {"smiles": "CC(C)c1cccc2c1C(=O)N(COC(=O)c1c(F)ccc(S(=O)(=O)N3CCN(C)CC3)c1F)S2(=O)=O", "note": "[Example 1AG]", "Ki": 0.01},
      {"smiles": "CC(C)c1cccc2c1C(=O)N(COC(=O)c1c(Cl)ccc(S(=O)(=O)N(C)CCCN(C)C)c1Cl)S2(=O)=O", "note": "[Example 1AF]", "Ki": 0.01},
      {"smiles": "O=C(OCN1C(=O)c2ccccc2S1(=O)=O)c1c(Cl)ccc(S(=O)(=O)N2CCOCC2)c1Cl", "note": "[Example 1S]", "Ki": 2},
      {"smiles": "CCOc1cc(C(C)C)c2c(c1)S(=O)(=O)N(COC(=O)c1c(Cl)ccc(OCCN3CCOCC3)c1Cl)C2=O", "note": "[Example 1AX]", "Ki": 0.033},
      {"smiles": "O=C(OCN1C(=O)c2ccccc2S1(=O)=O)c1c2ccccc2cc2ccccc12", "note": "[Example 1AM]", "Ki": 2.1},
      {"smiles": "CC(C)c1cccc2c1C(=O)N(COC(=O)c1c(Cl)ccc(S(=O)(=O)N(C)CCN(C)C)c1Cl)S2(=O)=O", "note": "[Example 1AA]", "Ki": 0.01},
      {"smiles": "COc1cc2c(c(C(C)C)c1OC)C(=O)N(COC(=O)c1c(Cl)cccc1Cl)S2(=O)=O", "note": "[Example 1BB]", "Ki": 0.35},
      {"smiles": "CC(C)c1cc(OCC(=O)OC(C)(C)C)cc2c1C(=O)N(COC(=O)c1c(Cl)cccc1Cl)S2(=O)=O", "note": "[Example 7A, 6-(2-t-butoxy-2-oxoethoxy)-4-isopropyl-2-saccharinylmethyl 2,6-dichlorobenzoate]", "Ki": 0.08},
      {"smiles": "CC(C)c1cc(OCC(O)CO)cc2c1C(=O)N(COC(=O)c1c(Cl)cccc1Cl)S2(=O)=O", "note": "(stereo not drawn) [Example 6, 6-(2,3-dihydroxypropoxy)-4-isopropylsaccharinylmethyl 2,6-dichlorobenzoate]", "Ki": 0.016},
      {"smiles": "CCCc1c(OC)c(OC)cc2c1C(=O)N(COC(=O)c1c(Cl)cccc1Cl)S2(=O)=O", "note": "[Example 1BA]", "Ki": 0.078},
      {"smiles": "CC(C)c1cccc2c1C(=O)N(COC(=O)c1c(Cl)ccc(S(=O)(=O)N3CCN(Cc4ccccc4)CC3)c1Cl)S2(=O)=O", "note": "[Example 1Z, 4-isopropyl-2-saccharinylmethyl 2,6-dichloro-3-(4-benzyl-1-piperazinyl-sulfonyl)benzoate]", "Ki": 0.06},
      {"smiles": "O=C(OCN1C(=O)c2ccccc2S1(=O)=O)c1cccc2ccccc12", "note": "[Example 1F]", "Ki": 3},
      {"smiles": "COc1cc(C(C)C)c2c(c1)S(=O)(=O)N(COC(=O)c1c(OC)cccc1OC)C2=O", "note": "[Example 1BK]", "Ki": 0.088},
      {"smiles": "CC(C)c1cc2c(c3c1C(=O)N(COC(=O)c1c(Cl)ccc(S(=O)(=O)N4CCN(C)CC4)c1Cl)S3(=O)=O)OCO2", "note": "[Example 1BI]", "Ki": 0.029},
      {"smiles": "CC(C)c1cccc2c1C(=O)N(COC(=O)c1c(Cl)ccc(OCCN(C)C)c1Cl)S2(=O)=O", "note": "[Example 1AE]", "Ki": 0.009}
    ]}
  ]
}
